Experimental data from ChEMBL document CHEMBL4190311, “Discovery of cycloalkyl-fused N-thiazol-2-yl-benzamides as tissue non-specific glucokinase activators: Design, synthesis, and biological evaluation” (Eur J Med Chem, 2017).
The source made the active and inactive calls. The rule behind the calls is not given here.

Columns and labels:
Hepatocyte = test: Increase in glucose uptake in mouse primary hepatocytes assessed as glucose uptake level at 20 uM after 24 hrs by glucose oxidase method relative to control; type: functional
[1] = biological target: T1, Hexokinase-4 (Rattus norvegicus) (UniProt P17712); test: Activation of glucokinase in rat INS1(832/13) cells assessed as increase in glucose sensitive insulin secretion at 20 uM after 2 hrs in presence of 5.5 mM glucose by AlphaLISA method relative to control; type: cell-based
T1 sequence (whole entry): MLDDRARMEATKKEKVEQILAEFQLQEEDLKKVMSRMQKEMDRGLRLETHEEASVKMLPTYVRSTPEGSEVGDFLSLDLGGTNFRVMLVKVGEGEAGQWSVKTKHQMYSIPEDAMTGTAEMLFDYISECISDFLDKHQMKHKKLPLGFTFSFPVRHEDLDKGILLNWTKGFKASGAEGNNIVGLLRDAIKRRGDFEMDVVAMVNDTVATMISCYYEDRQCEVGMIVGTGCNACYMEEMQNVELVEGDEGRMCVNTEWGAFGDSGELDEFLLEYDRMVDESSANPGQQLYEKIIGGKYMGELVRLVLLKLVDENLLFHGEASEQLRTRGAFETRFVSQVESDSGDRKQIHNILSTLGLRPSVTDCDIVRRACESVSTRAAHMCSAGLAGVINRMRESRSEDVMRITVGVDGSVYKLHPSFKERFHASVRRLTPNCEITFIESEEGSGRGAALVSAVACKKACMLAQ

Hexokinase-4 = biological target: T2, Hexokinase-4 (Homo sapiens, UniProt P35557); test: Activation of recombinant human liver glucokinase 2 assessed as […] in presence of 5 mM glucose by G6PDH coupled assay
T2 sequence (P35557 whole entry): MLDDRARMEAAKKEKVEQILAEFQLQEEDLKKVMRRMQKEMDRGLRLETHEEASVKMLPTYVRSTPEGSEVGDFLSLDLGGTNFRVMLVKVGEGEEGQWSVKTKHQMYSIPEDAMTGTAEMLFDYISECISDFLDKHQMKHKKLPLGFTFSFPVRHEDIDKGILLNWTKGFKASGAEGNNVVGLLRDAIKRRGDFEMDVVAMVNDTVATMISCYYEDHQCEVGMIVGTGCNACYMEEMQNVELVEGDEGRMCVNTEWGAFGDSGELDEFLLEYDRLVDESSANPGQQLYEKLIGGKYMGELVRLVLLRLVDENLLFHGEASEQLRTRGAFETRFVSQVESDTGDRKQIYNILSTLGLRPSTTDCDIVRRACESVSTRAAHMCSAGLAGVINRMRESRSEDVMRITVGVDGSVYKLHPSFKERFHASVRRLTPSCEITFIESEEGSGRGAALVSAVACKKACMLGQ

Activity (Hepatocyte)	fold change (FC) [1]	EC50 (Hexokinase-4) [µM]	Compound
inactive	5.51	0.3	COC[C@H](C)Oc1cc(Oc2ccc(C(=O)N3CCC3)cc2)cc(C(=O)Nc2nc3c(s2)CN(c2cc[nH]c(=O)c2)CC3)c1
inactive	1.3	0.21	COCC(C)Oc1cc(Oc2ccc(S(C)(=O)=O)cc2)cc(C(=O)Nc2nc3c(s2)CN(c2ccncc2)CC3)c1 (stereo not given)
inactive	5.4	0.87	COCC(C)Oc1cc(Oc2ccc(C(=O)N3CCC3)nc2)cc(C(=O)Nc2nc3c(s2)CN(C(=O)OC(C)(C)C)CC3)c1 (stereo not given)
		> 10	COCC(C)Oc1cc(Oc2ccc(S(C)(=O)=O)cc2)cc(C(=O)Nc2nc3c(s2)CN(Cc2ccccc2)CC3)c1 (stereo not given)
		2.6	COC[C@@H](C)Oc1cc(Oc2ccc(C(=O)N3CCC3)cc2)cc(C(=O)Nc2nc3c(s2)CN(C(=O)OC(C)(C)C)CC3)c1
		6.08	COC[C@H](C)Oc1cc(Oc2ccc(C(=O)N3CCC3)cc2)cc(C(=O)Nc2nc3c(s2)N(C(=O)OC(C)(C)C)CCC3)c1
		7.08	COCC(C)Oc1cc(Oc2ccc(S(C)(=O)=O)cc2)cc(C(=O)Nc2nc3c(s2)CN(C(C)C)CC3)c1 (stereo not given)
inactive	1.37	0.9	COCC(C)Oc1cc(Oc2ccc(S(=O)(=O)N3CCC3)cc2)cc(C(=O)Nc2nc3c(s2)CN(C(=O)OC(C)(C)C)CC3)c1 (stereo not given)
		0.89	COCC(C)Oc1cc(Oc2ccc(S(C)(=O)=O)cc2)cc(C(=O)Nc2nc3c(s2)CN(c2ccccn2)CC3)c1 (stereo not given)
		> 10	COCC(C)Oc1cc(Oc2ccc(S(C)(=O)=O)cc2)cc(C(=O)Nc2nc3c(s2)C(=O)CCC3)c1 (stereo not given)
		5.42	CCN1CCc2nc(NC(=O)c3cc(Oc4ccc(S(C)(=O)=O)cc4)cc(OC(C)COC)c3)sc2C1 (stereo not given)
		1.3	C[C@@H](CO)Oc1cc(Oc2ccc(C(=O)N3CCC3)cc2)cc(C(=O)Nc2nc3c(s2)CN(C(=O)OC(C)(C)C)CC3)c1
		1.13	COC[C@H](C)Oc1cc(Oc2ccc(C(=O)N3CCC3)cc2)cc(C(=O)Nc2nc3c(s2)CNCC3)c1
		1.09	COCC(C)Oc1cc(Oc2ccc(S(C)(=O)=O)cc2)cc(C(=O)Nc2nc3c(s2)CN(c2cccnc2)CC3)c1 (stereo not given)
		0.23	COCC(C)Oc1cc(Oc2ccc(S(=O)(=O)C3CC3)cc2)cc(C(=O)Nc2nc3c(s2)CN(C(=O)OC(C)(C)C)CC3)c1 (stereo not given)
		> 10	COCC(C)Oc1cc(Oc2ccccc2S(C)(=O)=O)cc(C(=O)Nc2nc3c(s2)CN(C(=O)OC(C)(C)C)CC3)c1 (stereo not given)
		> 10	CC(C)(C)OC(=O)N1CCc2nc(NC(=O)c3cc(OCC4CCCC4)cc(Oc4ccc(S(C)(=O)=O)cc4)c3)sc2C1
		> 10	COCC(C)Oc1cc(Oc2ccc(S(C)(=O)=O)cc2)cc(C(=O)Nc2nc3c(s2)CN(c2ccccc2)CC3)c1 (stereo not given)
		2.23	COCCOc1cc(Oc2ccc(S(C)(=O)=O)cc2)cc(C(=O)Nc2nc3c(s2)CN(C(=O)OC(C)(C)C)CC3)c1
		> 10	COCC(C)Oc1cc(Oc2ccc(S(C)(=O)=O)cc2)cc(C(=O)Nc2nc3c(s2)COCC3)c1 (stereo not given)
		8.42	COCC(C)Oc1cc(Oc2ccc(S(C)(=O)=O)cc2)cc(C(=O)Nc2nc3c(s2)CN(C)CC3)c1 (stereo not given)
		2.22	COCC(C)Oc1cc(Oc2ccc(S(C)(=O)=O)cc2)cc(C(=O)Nc2nc3c(s2)CN(C(C)=O)CC3)c1 (stereo not given)
		4.6	COC[C@H](C)Oc1cc(Oc2ccc(C(=O)N3CCC3)cc2)cc(C(=O)Nc2nc3c(s2)CN(CCO)CC3)c1

Compound	Activity (Hepatocyte)	fold change (FC) [1]	EC50 (Hexokinase-4) [µM]
CC(C)Oc1cc(Oc2ccc(S(C)(=O)=O)cc2)cc(C(=O)Nc2nc3c(s2)CN(C(=O)OC(C)(C)C)CC3)c1	34%	inactive	0.17
COC[C@H](C)Oc1cc(Oc2ccc(C(=O)N3CCC3)cc2)cc(C(=O)Nc2nc3c(s2)CCN(C(=O)OC(C)(C)C)C3)c1	13%	2.24	0.46
CCOC(=O)N1CCc2nc(NC(=O)c3cc(Oc4ccc(C(=O)N5CCC5)cc4)cc(O[C@@H](C)COC)c3)sc2C1	17%	5.45	0.23
